Measurements reported in US20180280480A1, “COMPOSITIONS AND PEPTIDES HAVING DUAL GLP-1R AND GLP-2R AGONIST ACTIVITY” (priority 2014, published 2018).
Numbered stars: 1 amine (or outer) side, 2 acyl side, 3 side chain; on linkers, the order of the positions; unused ones are H or OH. Side chains are listed from the residue outwards. Ends that are not written are not given here. * marks the point of attachment. γGlu = O=C(O)[C@H](CCC(=O)[*:2])N[*:1]; Palmitoyl = CCCCCCCCCCCCCCCC(=O)*

T1: human GLP-2 receptor (human, UniProt O95838 1-553, limits assumed)
T1 sequence (looked up): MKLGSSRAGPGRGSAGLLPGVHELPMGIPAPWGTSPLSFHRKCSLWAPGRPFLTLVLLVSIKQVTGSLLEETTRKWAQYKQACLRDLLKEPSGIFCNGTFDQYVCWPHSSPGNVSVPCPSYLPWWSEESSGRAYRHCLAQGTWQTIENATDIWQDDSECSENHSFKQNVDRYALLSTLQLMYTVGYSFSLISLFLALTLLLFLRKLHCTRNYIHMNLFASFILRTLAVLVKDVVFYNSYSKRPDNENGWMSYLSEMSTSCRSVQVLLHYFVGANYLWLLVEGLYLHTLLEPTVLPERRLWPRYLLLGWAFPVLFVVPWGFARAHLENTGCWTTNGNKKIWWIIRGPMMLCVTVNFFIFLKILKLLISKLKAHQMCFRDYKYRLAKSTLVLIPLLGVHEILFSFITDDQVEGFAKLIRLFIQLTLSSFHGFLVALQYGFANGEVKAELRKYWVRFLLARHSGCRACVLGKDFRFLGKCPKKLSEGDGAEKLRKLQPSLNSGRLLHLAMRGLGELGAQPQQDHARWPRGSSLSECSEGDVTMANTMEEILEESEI


Legend:
C57BL/6J mice [1] = assay: Acute food intake in C57BL/6J mice; format: in vivo; conditions: for Total food intake (g/animal): Day 0: 0-[…] (lights off), mean ± SEM
Procedure: The C57BL/6J mice arrived 7 days prior to the initiation of the study. During these days, animals were handled daily to accustom them to the experimental paradigm. At Day −1, the mice were randomised according to body weight to participate in one of following drug treatment groups (n=6-8 in each group): Group 1: vehicle. […] Group 3-5: SEQ ID NO 3; 3.0; 1.0; 0.3 mg/kg. Group 6-8: SEQ ID NO 4; 3.0; 1.0; 0.3 mg/kg. Group 9-11: SEQ ID NO 5; 3.0; 1.0; 0.3 mg/kg. Group 12-14: SEQ ID NO 6; 3.0; 1.0; 0.3 mg/kg. Group 15-17: SEQ ID NO 7; 3.0; 1.0; 0.3 mg/kg. Three days prior to initiation of dosing, all animals were handled daily and accustomed to the experimental conditions by subcutaneous mock injections (i.e. nipping the skin of the back). Baseline food intake was monitored four days prior to the study. Mice were randomized according to body weight on Day −1. Animals were subjected to two separate injections. First acute dose was administered prior to lights out at Day 0 and food intake was monitored 24 hours post dosing. On Day 3, mice were re-randomised into new treatment groups and dosed prior to lights out. Food intake was monitored 24 hours post dosing. Body weight was measured daily from Day −5 and throughout the study. The study was terminated on Day 5. […] Dosing took place prior to lights out in the afternoon (between 13.30 and 14.00). Doses were administered subcutaneously (dose volume 5 ml/kg). Food intake data was collected using the HM-2 system, an online computerized feeding system using digital weighing cells. Food intake and body weight were measured from Day −7 and throughout the study. […]

C57BL/6J mice [2] = assay: GLP1R-GLP2R dual agonist compound study: cumulative food intake; format: in vivo
From the text: Forty (40, n=10, 4 groups) male C57BL/6J mice obtained from Taconic, Denmark, were used. At the time of the experiment, the mice had reached an age of 9-10 weeks. The mice were acclimatized for one week in their new environment and offered regular chow diet (Altromin 1324, Brogaarden A/S, Denmark) and domestic quality tap water. Animals were housed two per cage during the study, in a light-, temperature-, and humidity-controlled room (12-hour light: 12-hour dark cycle, lights on/off at 4 AM/4 PM hour; 22±1° C.; 50±10% relative humidity). […] Animals were uniquely identified with implantable microchips (Pet ID Microchip, E-vet) in all mice upon arrival. Animals were identified using the WS-2 weight station (MBrose ApS, Faaborg, Denmark) connected to a laptop running the HM02Lab software (Ellegaard Systems, Faaborg, Denmark). The HM02Lab software matches the body weight with ID and calculates the dose directly based on the body weight. All mice were handled for 3 days prior to the experiment to acclimatize the animals to handling and injections.

C57BL/6J mice [3] = assay: GLP1R-GLP2R dual agonist compound study: gut wet weight; format: in vivo
From the text: On study day 8, the mice were terminated and the GI tract was removed for determination of the gut wet weight. The gut wet weight results are listed below in Table 12.

C57BL/6J mice [4] = assay: GLP1R-GLP2R dual agonist compound study: oral glucose tolerance test; format: in vivo
Procedure: On day 7, an oral glucose tolerance test (OGTT) was performed. Animals were mildly fasted as all food was removed 4 hours prior to the oral glucose load. Vehicle (SC) and compounds were administered subcutaneously (SC) 2 hours prior to the OGTT. At t=0 mice received an oral glucose load (2 g/kg; 4 ml/kg; 500 mg/ml, Fresenius Kabi, Sweden). Glucose was given as gavage via a gastrically-placed tube connected to a syringe ensuring accurate dosing. Blood glucose was measured from tail vein blood before glucose (at t=−120 and 0 min, baseline) and after glucose administration at t=15, 30, 60 and 120 min. Blood samples (tail vein) was collected into 10 μl heparinized glass capillary tubes and immediately suspended in buffer (0.5 ml of glucose/lactate system solution (EKF-diagnostics, Germany) and analyzed for glucose on the test day using a BIOSEN c-Line glucose meter (EKF-diagnostics, Germany) according to manufacturer's instructions. Results from the OGTT are listed below in Table 11.

lean NMRI mice = assay: Acute effect on food intake in lean NMRI mice; format: in vivo; conditions: for Cumulative food intake following administration of a single dose: 50 nmol/kg s.c., mean ± S.E.M.
Procedure: All animals were housed in groups of four. The animal room environment were controlled (targeted ranges: temperature 22±2° C.; relative humidity 50±10%; light/dark cycle: 12 hours light, 12 hours dark, lights off from 14.00 to 02.00 hours). The mice had ad libitum access to Altromin (Brogaarden, Denmark) and tap water. Mice arrived 5 days prior to the initiation of the study and were transferred to the HM-2 system. From arrival day no food was provided in the cages thereby forcing the animals to learn to eat from the food channels thus habituating the animals faster to the HM-2 system. Food intake and body weight were measured from day −3 and throughout the study. Food intake data were collected using the HM-2 real-time food intake monitoring system, an online computerized feeding system using digital weighing cells. As the animals were uniquely identified with microchips, each individual mouse was identified by its corresponding microchip upon entry and exit from the food channel. The HM-2 system continuously and in real-time mode monitored feeding activity in two independent channels and recorded the start and finishing time of each meal and the amount of food consumed by each animal within the selected time interval without human intervention. The net food intake was calculated by the HM-2 control unit software (HMLab, MBRose, Faaborg, Denmark).
Doses were administered subcutaneously (dose volume 5 ml/kg), in the lower back region. Food intake was measured up to 68 hours following the dosing of the animals.

lean C57BL/6J mice = assay: Sub-acute effect on body weight in lean C57BL/6J mice; format: in vivo; conditions: for Body weight change in percent to baseline body weight: 50 nmol/kg BID SC, mean ± S.E.M.
Procedure: Eighteen (18) male C57/BL6J mice obtained from Janvier, France, were used. At the time of experimentation the mice had reached an age of 9 weeks. The mice were acclimatized for one week in their new environment and offered regular chow diet (Altromin 1324, Brogaarden A/S, Denmark) and domestic quality tap water. Animals were housed six per cage during the study, in a light-, temperature-, and humidity-controlled room (12-hour light:12-hour dark cycle, lights on/off at 4 AM/4 PM hour; 22±1° C.; 50±10% relative humidity).
Dosing volume was 5 ml/kg, SC.
The compounds were dissolved in PBS buffer containing 0.1% BSA, pH 7.4. The subcutaneous injections were placed at the lower back. All mice were handled for 3 days prior to experimentation to acclimatize the animals to handling and injections.

human GLP-1 receptor = human GLP-1 receptor (human, UniProt P43220 24-463, limits assumed); assay: cell-based or functional assay
human GLP-2 receptor = target: T1, human GLP-2 receptor; assay: cell-based or functional assay

GLP-1R, EC50 (human GLP-1 receptor) [nM] | GLP-2R, EC50 (human GLP-2 receptor) [nM] | Molecule | Total food intake (g/animal) (C57BL/6J mice [1]; single SC dose 0.3 mg/kg) | Total food intake (g/animal) (C57BL/6J mice [1]; single SC dose 1 mg/kg) | Total food intake (g/animal) (C57BL/6J mice [1]; single SC dose 3 mg/kg) | also measured
– | – | HGDGSFTSELSTYLDNLAARDFINWLIQTKITD-NH2 (C-terminus assumed) [SEQ ID NO 7, R^1-HGDGSFTSELSTYLDNLAARDFINWLIQTKITDR^2] | 1.05 ± 0.41 | 0.47 ± 0.08 | 0.28 ± 0.12 | food intake after […] compared to vehicle (C57BL/6J mice [1]; single dose 1-3 mg/kg): significantly reduced food intake
– | – | R^1-HGDGSFTDELSTYLDALAARDFIAWLIQTKR^2 [SEQ ID NO 3] | 0.76 ± 0.37 | 0.66 ± 0.15 | 0.30 ± 0.08 | Cumulative food intake (C57BL/6J mice [2]; Day 0-7, 3.0 mg/kg BID SC, mean ± S.E.M.): 26.03 ± 2.49 g; cumulative food intake compared to vehicle and teduglutide (C57BL/6J mice [2]; dosed twice daily for 7 days): considerably reduced cumulative food intake; Gut wet weight (C57BL/6J mice [3]; Day 8, 3.0 mg/kg BID SC, mean ± S.E.M.): 3.3 ± 0.2 g; gut wet weight compared to vehicle and teduglutide (C57BL/6J mice [3]; dosed twice daily for 8 days): significantly increased the gut wet weight; Oral glucose tolerance test AUC, 0-120 min (C57BL/6J mice [4]; Day 7, 3.0 mg/kg BID SC, glucose 2 g/kg oral, mean ± S.E.M.): 503 ± 97 mmol·min/L; blood glucose compared to vehicle and teduglutide (C57BL/6J mice [4]; dosed twice daily for 7 days): significantly reduced fasting blood glucose
– | – | R^1-HGDGSFTDELSTYLDNLAARDFIAWLIQTKITDR^2 [SEQ ID NO 5] | 0.69 ± 0.19 | 0.83 ± 0.18 | 0.26 ± 0.08 | –
– | – | R^1-HGDGSFTSELSTYLDALAARDFINWLIQTKR^2 [SEQ ID NO 4] | 0.93 ± 0.06 | 0.79 ± 0.15 | 0.25 ± 0.08 | –
– | – | R^1-H-G-D-G-S-F-T-S-E-L-S-T-Y-[K(C16-yE-)]-DALAARDFIAWLIQTKITDR^2 [SEQ ID NO 23] | – | – | – | acute food intake compared to vehicle (lean NMRI mice; 12 and 24 hours after single dose of 50 nmol/kg): significantly reduce acute food intake to an similar extend as liraglutide; Cumulative food intake following administration of a single dose (lean NMRI mice; 12 h after dosing): 1.82 ± 0.24 grams pr mice; Cumulative food intake following administration of a single dose (lean NMRI mice; 24 h after dosing): 2.83 ± 0.22 grams pr mice; Cumulative food intake following administration of a single dose (lean NMRI mice; 60 h after dosing): 11.43 ± 1.97 grams pr mice; food intake compared to vehicle (lean NMRI mice; 60 hours after single dose of 50 nmol/kg): tends to still have an effect; effect on body weight (lean C57BL/6J mice; 50 nmol/kg, after two days of administration, sustained up to seven days): significantly reduced the body weight; Body weight change in percent to baseline body weight (lean C57BL/6J mice; Day 0): 100.0 ± 0.0%; Body weight change in percent to baseline body weight (lean C57BL/6J mice; Day 2): 90.7 ± 0.8 %; Body weight change in percent to baseline body weight (lean C57BL/6J mice; Day 5): 89.5 ± 1.8 %; Body weight change in percent to baseline body weight (lean C57BL/6J mice; Day 7): 90.8 ± 1.4 %
0.658 | > 100 | HGDGSFTSELSTYLDALAAK([γGlu-Palmitoyl])DFIAWLIQTKITD [SEQ ID NO 26] | – | – | – | –
> 10 | 4.25 | HGDGSFTSELK([γGlu-Palmitoyl])TYLDALAARDFIAWLIQTKITD [SEQ ID NO 21] | – | – | – | –
> 10 | > 100 | HGDGSFK([γGlu-Palmitoyl])SELSTYLDALAARDFIAWLIQTKITD [SEQ ID NO 19] | – | – | – | –
0.319 | 1.93 | HGDGSFTSELSTYLDAK([γGlu-Palmitoyl])AARDFIAWLIQTKITD [SEQ ID NO 25] | – | – | – | –
0.169 | 1.06 | HGDGSFTSELSTYK([γGlu-Palmitoyl])DALAARDFIAWLIQTKITD [SEQ ID NO 23] | – | – | – | –
0.338 | 5.6 | HGDGSFTSELSTYLDK([γGlu-Palmitoyl])LAARDFIAWLIQTKITD [SEQ ID NO 24] | – | – | – | –
0.543 | 6.61 | HGDGSFTSELSK([γGlu-Palmitoyl])YLDALAARDFIAWLIQTKITD [SEQ ID NO 22] | – | – | – | –
